Source: patent US10392404B2, “Compounds and compositions as kinase inhibitors” (NOVARTIS AG, priority 2014, dated 2019)

What was measured:
C-RAF = molecular target: T1, C-RAF (Homo sapiens, UniProt P04049, Y340E/Y341E); assay: In vitro Raf activity determination (Alpha Screen, biotinylated kinase-dead MEK1 substrate), C-Raf; assay type: biochemical; details: c-Raf approximately 4 nM; ATP 1 μM; pre-incubation 60 minutes; reaction 1 hour at room temperature
T1 construct: His tag (implied by nickel chromatography) (cleaved yes); StrepII tag (cleaved yes); made in house; host or cells: Sf9 insect cells (baculovirus), CRAF and h14-3-3 zeta co-expressed; MEK1 substrate from E. coli
In short: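 Full-length C-Raf carrying Y340E/Y341E, co-expressed with 14-3-3ζ in Sf9 cells, at approximately 4 nM, with approximately 10 nM biotinylated kinase-dead MEK1 (K97R) and 1 μM ATP, pH 7.5. Compound preincubated 60 min, reaction 1 hour at room temperature. Phospho-MEK read by AlphaScreen; IC50 by non-linear regression.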

b-Raf (V600E) = molecular target: T2, b-Raf (V600E) (Homo sapiens, UniProt P15056, V600E); assay: In vitro Raf activity determination (Alpha Screen, biotinylated kinase-dead MEK1 substrate), B-Raf; assay type: biochemical; details: b-Raf (V600E) approximately 4 pM; ATP 10 μM; pre-incubation 60 minutes; reaction 3 hours at room temperature
T2 construct: made in house
In short: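 Activated b-Raf(V600E) (~4 pM) pre-incubated 60 min with compound and biotinylated kinase-dead (K97R) MEK1 (~10 nM), then reacted 3 h at room temperature with 10 μM ATP in 50 mM Tris pH 7.5, 15 mM MgCl2, 0.01% BSA, 1 mM DTT. Phospho-MEK detected by AlphaScreen; IC50 by non-linear regression.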

T1 sequence (P04049 whole entry Y340E/Y341E): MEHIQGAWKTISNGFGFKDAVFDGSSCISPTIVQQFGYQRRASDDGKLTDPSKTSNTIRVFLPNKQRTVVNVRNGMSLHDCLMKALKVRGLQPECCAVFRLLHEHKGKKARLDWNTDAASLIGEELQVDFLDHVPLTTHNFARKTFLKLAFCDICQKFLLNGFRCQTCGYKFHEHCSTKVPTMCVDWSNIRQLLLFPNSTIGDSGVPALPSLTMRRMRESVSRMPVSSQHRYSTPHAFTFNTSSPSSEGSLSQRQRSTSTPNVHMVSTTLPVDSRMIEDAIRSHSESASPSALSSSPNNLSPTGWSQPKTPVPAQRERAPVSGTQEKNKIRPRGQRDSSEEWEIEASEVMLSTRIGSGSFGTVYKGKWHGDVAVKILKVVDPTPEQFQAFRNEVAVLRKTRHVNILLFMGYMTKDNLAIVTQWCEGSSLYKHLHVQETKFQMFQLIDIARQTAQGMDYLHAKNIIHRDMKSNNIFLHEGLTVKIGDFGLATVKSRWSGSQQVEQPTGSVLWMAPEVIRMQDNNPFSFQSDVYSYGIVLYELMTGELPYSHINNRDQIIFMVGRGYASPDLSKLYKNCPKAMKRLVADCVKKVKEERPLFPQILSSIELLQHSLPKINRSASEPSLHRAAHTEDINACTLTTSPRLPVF
T1 sequence (P63104 whole entry partner): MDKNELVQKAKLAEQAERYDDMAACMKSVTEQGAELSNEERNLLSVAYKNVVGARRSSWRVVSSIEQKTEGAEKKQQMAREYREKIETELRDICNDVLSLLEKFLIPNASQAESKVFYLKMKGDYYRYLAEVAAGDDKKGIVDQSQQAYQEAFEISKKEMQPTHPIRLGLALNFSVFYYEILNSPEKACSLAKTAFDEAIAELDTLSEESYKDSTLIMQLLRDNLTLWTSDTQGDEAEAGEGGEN
T2 sequence (P15056 whole entry V600E): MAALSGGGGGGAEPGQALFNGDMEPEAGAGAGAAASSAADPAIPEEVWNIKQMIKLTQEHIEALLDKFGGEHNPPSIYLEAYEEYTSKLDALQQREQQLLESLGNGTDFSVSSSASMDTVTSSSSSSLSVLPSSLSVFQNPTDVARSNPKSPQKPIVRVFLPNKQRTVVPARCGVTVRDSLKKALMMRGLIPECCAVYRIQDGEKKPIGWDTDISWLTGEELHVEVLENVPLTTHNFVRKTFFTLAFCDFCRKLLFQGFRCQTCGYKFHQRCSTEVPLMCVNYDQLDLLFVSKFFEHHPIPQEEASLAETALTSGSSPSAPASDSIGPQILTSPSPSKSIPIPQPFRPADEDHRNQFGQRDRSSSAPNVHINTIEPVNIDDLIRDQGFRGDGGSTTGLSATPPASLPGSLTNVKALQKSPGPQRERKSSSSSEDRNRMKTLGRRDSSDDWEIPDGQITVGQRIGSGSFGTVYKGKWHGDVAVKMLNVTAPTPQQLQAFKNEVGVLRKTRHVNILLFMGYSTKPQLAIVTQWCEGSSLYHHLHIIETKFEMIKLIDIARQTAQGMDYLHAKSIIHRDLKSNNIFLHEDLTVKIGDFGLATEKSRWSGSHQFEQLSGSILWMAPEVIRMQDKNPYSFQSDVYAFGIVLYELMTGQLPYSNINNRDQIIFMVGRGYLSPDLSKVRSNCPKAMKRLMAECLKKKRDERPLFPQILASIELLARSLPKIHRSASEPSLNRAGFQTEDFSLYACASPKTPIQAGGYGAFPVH

Row | SMILES | IC50 (C-RAF) [nM] | IC50 (b-Raf (V600E)) [nM]
1 | Cc1ncc(NC(=O)c2ccnc(C(C)(C)O)c2)cc1-c1cnc(N(C)C)c(C#N)c1 [Example 272, N-(5′-cyano-6′-(dimethylamino)-2-methyl-[3,3′-bipyridin]-5-yl)-2-(2-hydroxypropan-2-yl)isonicotinamide] | 2.16 | 18.4
2 | Cc1ccc(NC(=O)c2cc(C(C)(C)N)cc(C(F)(F)F)c2)cc1-c1cnc(-c2cnn(C)c2)c(C#N)c1 [Example 273, 3-(2-aminopropan-2-yl)-N-(3-(5-cyano-6-(1-methyl-1H-pyrazol-4-yl)pyridin-3-yl)-4-methylphenyl)-5-(trifluoromethyl) benzamide] | 1 | 4
